Data from PubChem BioAssay (NCI).
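Dose response: 5 concentrations. Exposure: 48 h. Format: 96-well plates. Endpoint: linear interpolation; highest concentration if not reached. GI50 is the concentration that inhibits growth by half. The concentration for full growth arrest is given as TGI.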

Columns and labels:
Assay in all cases: NCI-60 cell line screen, 48 h
[1] = tested on: A498 renal
[2] = tested on: A549 NSCLC
[3] = tested on: K-562 leukemia
[4] = tested on: HOP-62 NSCLC
[5] = tested on: NCI/ADR-RES ovarian
[6] = tested on: M14 melanoma
[7] = tested on: HCC-2998 colon
[8] = tested on: NCI-H226 lung
[9] = tested on: SF-539 CNS
[10] = tested on: SK-MEL-2 melanoma
[11] = tested on: HCT-15 colon
[12] = tested on: MOLT-4 leukemia
[13] = tested on: SN12C renal
[14] = tested on: SNB-75 CNS
[15] = tested on: HT29 colon
[16] = tested on: RPMI-8226 leukemia
[17] = tested on: UACC-257 melanoma
[18] = tested on: SF-268 CNS
[19] = tested on: UACC-62 melanoma
[20] = tested on: NCI-H460 lung
[21] = tested on: IGROV1 ovarian
[22] = tested on: 786-0 renal
[23] = tested on: MALME-3M melanoma
[24] = tested on: SK-MEL-5 melanoma
[25] = tested on: PC-3 prostate
[26] = tested on: SK-OV-3 ovarian
[27] = tested on: KM12 colon
[28] = tested on: T-47D breast
[29] = tested on: SNB-19 CNS
[30] = tested on: TK-10 renal
[31] = tested on: LOX IMVI melanoma
[32] = tested on: CAKI-1 renal
[33] = tested on: BT-549 breast
[34] = tested on: CCRF-CEM leukemia
[35] = tested on: OVCAR-3 ovarian
[36] = tested on: SF-295 CNS
[37] = tested on: HL-60(TB) leukemia
[38] = tested on: MCF7 breast
[39] = tested on: MDA-MB-231 breast
[40] = tested on: SR leukemia
[41] = tested on: SK-MEL-28 melanoma
[42] = tested on: COLO 205 colon
[43] = tested on: HOP-92 NSCLC
[44] = tested on: OVCAR-8 ovarian
[45] = tested on: MDA-MB-435
[46] = tested on: UO-31 renal
[47] = tested on: OVCAR-5 ovarian
[48] = tested on: NCI-H23 lung
[49] = tested on: SW-620 colon
[50] = tested on: U251 CNS
[51] = tested on: RXF 393 renal
[52] = tested on: ACHN renal
[53] = tested on: OVCAR-4 ovarian
[54] = tested on: DU-145 prostate
[55] = tested on: HS 578T breast
[56] = tested on: HCT-116 colon
[57] = tested on: NCI-H522 lung

CCn1c(=O)c(Oc2ccc(F)cc2F)cc2cnc(NC3CCOCC3)nc21
GI50 [1]: 6.94 µM | TGI [1]: > 25 µM | GI50 [2]: > 25 µM | TGI [2]: > 25 µM | GI50 [3]: > 25 µM | TGI [3]: > 25 µM | GI50 [4]: > 25 µM | TGI [4]: > 25 µM | GI50 [5]: > 25 µM | TGI [5]: > 25 µM | GI50 [6]: > 25 µM | TGI [6]: > 25 µM | GI50 [7]: > 25 µM | TGI [7]: > 25 µM | GI50 [8]: > 25 µM | TGI [8]: > 25 µM | GI50 [9]: > 25 µM | TGI [9]: > 25 µM | GI50 [10]: > 25 µM | TGI [10]: > 25 µM | GI50 [11]: > 25 µM | TGI [11]: > 25 µM | GI50 [12]: > 25 µM | TGI [12]: > 25 µM | GI50 [13]: > 25 µM | TGI [13]: > 25 µM | GI50 [14]: > 25 µM | TGI [14]: > 25 µM | GI50 [15]: > 25 µM | TGI [15]: > 25 µM | GI50 [16]: > 25 µM | TGI [16]: > 25 µM | GI50 [17]: > 25 µM | TGI [17]: > 25 µM | GI50 [18]: > 25 µM | TGI [18]: > 25 µM | GI50 [19]: > 25 µM | TGI [19]: > 25 µM | GI50 [20]: > 25 µM | TGI [20]: > 25 µM | GI50 [21]: > 25 µM | TGI [21]: > 25 µM | GI50 [22]: > 25 µM | TGI [22]: > 25 µM | GI50 [23]: > 25 µM | TGI [23]: > 25 µM | GI50 [24]: > 25 µM | TGI [24]: > 25 µM | GI50 [25]: > 25 µM | TGI [25]: > 25 µM | GI50 [26]: > 25 µM | TGI [26]: > 25 µM | GI50 [27]: > 25 µM | TGI [27]: > 25 µM | GI50 [28]: > 25 µM | TGI [28]: > 25 µM | GI50 [29]: > 25 µM | TGI [29]: > 25 µM | GI50 [30]: 19.7 µM | TGI [30]: > 25 µM | GI50 [31]: > 25 µM | TGI [31]: > 25 µM | GI50 [32]: > 25 µM | TGI [32]: > 25 µM | GI50 [33]: > 25 µM | TGI [33]: > 25 µM | GI50 [34]: > 25 µM | TGI [34]: > 25 µM | GI50 [35]: > 25 µM | TGI [35]: > 25 µM | GI50 [36]: > 25 µM | TGI [36]: > 25 µM | GI50 [37]: > 14.1 µM | TGI [37]: > 25 µM | GI50 [38]: > 25 µM | TGI [38]: > 25 µM | GI50 [39]: > 25 µM | TGI [39]: > 25 µM | GI50 [40]: > 25 µM | TGI [40]: > 25 µM | GI50 [41]: > 25 µM | TGI [41]: > 25 µM | GI50 [42]: > 25 µM | TGI [42]: > 25 µM | GI50 [43]: 3.19 µM | TGI [43]: > 25 µM | GI50 [44]: > 25 µM | TGI [44]: > 25 µM | GI50 [45]: > 25 µM | TGI [45]: > 25 µM | GI50 [46]: 5.47 µM | TGI [46]: > 15.2 µM | GI50 [47]: > 25 µM | TGI [47]: > 25 µM | GI50 [48]: > 25 µM | TGI [48]: > 25 µM | GI50 [49]: > 25 µM | TGI [49]: > 25 µM | GI50 [50]: > 25 µM | TGI [50]: > 25 µM | GI50 [51]: > 18.7 µM | TGI [51]: > 25 µM | GI50 [52]: > 25 µM | TGI [52]: > 25 µM | GI50 [53]: > 25 µM | TGI [53]: > 25 µM | GI50 [54]: > 25 µM | TGI [54]: > 25 µM | GI50 [55]: > 16.4 µM | TGI [55]: > 25 µM | GI50 [56]: > 25 µM | TGI [56]: > 25 µM | GI50 [57]: > 25 µM | TGI [57]: > 25 µM
